Test results as given in US20230416232A1, “PYRIMIDINE COMPOUNDS, COMPOSITIONS, AND MEDICINAL APPLICATIONS THEREOF” (Blueprint Medicines Corporation, priority 2020, published 2023).
Structures can show the parent of a compound that is named as a salt.

How the values were obtained:
Assay type in all cases: cell-based
[1] = test system: A431 cells; test: Cellular proliferation (Alamar Blue) assay, A431 cells; conditions: Homo sapiens, A-431, 72 h, A431 cells; 72 hr; Alamar Blue; read-out: A431 IC50
Description: (§1) • 1. Seed cells at 5000 for A431 and 15,000 cells for Ba/F3 in 100 μL/well in complete media (for A431: DMEM with 10% FBS and for Ba/F3 cells: RPMI with 10% FBS) in 96-well tissue culture plate. Leave outer wells without cells for background measurements. Incubate at 37 degree Celsius in 5% CO2 humidified incubator for 16-18 hours. • 2. Add 0.025 ml of 5X concentration compound dilution or DMSO control. Final compound concentration range is 10-0.0005 μM prepared in 3-fold serial dilutions. Incubate for 72 hr at 37 degree Celsius in 5% CO2 humidified incubator. • 3. Add 0.0125 ml Alamar Blue™ reagent to each well with multi-channel pipette and tap gently on each side of the plate to mix. Incubate for 3 hours at 37 degree Celsius in 5% CO2 humidified incubator. • 4. […] Data analysis was performed using XLfit 5.5.0.5.

[2] = molecular target: HER2 (A775_G776insYVMA) expressing Ba/F3 stable cell line (Homo sapiens, UniProt P04626, DUP772-775, cells depend on it); test: Cellular proliferation (Alamar Blue) assay, HER2 (A775_G776insYVMA) Ba/F3; conditions: HER2 (A775_G776insYVMA) Ba/F3 cells; 72 hr; Alamar Blue; read-out: YVMA IC50
Description: (§2) Cell line details: • 1. EGFR(D770_N771insSVD) expressing Ba/F3 stable cell line • 2. EGFR (A767_dupASV) expressing Ba/F3 stable cell line • 3. A431 cells • 4. EGFR (H773insNPH) expressing Ba/F3 stable cell line • 5. HER2 (A775_G776insYVMA) expressing Ba/F3 stable cell line
as §1

[3] = molecular target: EGFR (A767_dupASV) expressing Ba/F3 stable cell line (Homo sapiens, UniProt P00533, DUP767-769, cells depend on it); test: Cellular proliferation (Alamar Blue) assay, EGFR (A767_dupASV) Ba/F3; conditions: 72 hr, read-out: A767 IC50
Description: as §2, §1

HER2 (A775_G776insYVMA) expressing Ba/F3 stable cell line, sequence (P04626 with tags, fused parts or gaps DUP772-775): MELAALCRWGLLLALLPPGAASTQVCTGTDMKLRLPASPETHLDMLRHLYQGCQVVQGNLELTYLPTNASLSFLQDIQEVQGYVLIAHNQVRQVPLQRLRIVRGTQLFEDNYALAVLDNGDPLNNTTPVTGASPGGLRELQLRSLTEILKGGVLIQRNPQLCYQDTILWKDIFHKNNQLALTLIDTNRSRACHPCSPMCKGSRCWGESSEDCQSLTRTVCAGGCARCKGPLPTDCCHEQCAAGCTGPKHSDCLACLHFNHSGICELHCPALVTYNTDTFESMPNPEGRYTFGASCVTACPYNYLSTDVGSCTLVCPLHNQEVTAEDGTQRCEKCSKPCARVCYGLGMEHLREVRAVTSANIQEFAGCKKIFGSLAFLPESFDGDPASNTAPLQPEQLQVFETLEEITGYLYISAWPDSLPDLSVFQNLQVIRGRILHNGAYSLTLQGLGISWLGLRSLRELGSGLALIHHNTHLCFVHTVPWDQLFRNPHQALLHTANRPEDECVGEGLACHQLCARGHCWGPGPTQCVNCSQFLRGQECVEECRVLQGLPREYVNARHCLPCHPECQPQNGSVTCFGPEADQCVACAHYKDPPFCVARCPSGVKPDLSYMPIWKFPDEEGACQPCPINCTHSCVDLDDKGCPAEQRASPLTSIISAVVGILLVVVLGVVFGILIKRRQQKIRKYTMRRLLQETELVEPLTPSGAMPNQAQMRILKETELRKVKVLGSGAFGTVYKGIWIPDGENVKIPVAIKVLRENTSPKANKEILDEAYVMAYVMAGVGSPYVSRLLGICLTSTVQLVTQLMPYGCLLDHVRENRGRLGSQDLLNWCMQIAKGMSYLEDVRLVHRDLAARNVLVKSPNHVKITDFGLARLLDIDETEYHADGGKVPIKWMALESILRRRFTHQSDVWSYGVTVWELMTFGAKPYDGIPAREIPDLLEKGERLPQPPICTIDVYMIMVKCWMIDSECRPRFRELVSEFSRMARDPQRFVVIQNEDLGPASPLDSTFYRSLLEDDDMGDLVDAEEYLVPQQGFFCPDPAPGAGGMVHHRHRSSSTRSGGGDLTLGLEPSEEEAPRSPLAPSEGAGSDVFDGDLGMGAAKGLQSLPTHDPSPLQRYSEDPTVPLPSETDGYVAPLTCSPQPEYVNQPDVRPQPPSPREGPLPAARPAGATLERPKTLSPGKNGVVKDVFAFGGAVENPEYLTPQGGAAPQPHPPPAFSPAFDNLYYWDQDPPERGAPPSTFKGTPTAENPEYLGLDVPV
EGFR (A767_dupASV) expressing Ba/F3 stable cell line, sequence (P00533 with tags, fused parts or gaps DUP767-769): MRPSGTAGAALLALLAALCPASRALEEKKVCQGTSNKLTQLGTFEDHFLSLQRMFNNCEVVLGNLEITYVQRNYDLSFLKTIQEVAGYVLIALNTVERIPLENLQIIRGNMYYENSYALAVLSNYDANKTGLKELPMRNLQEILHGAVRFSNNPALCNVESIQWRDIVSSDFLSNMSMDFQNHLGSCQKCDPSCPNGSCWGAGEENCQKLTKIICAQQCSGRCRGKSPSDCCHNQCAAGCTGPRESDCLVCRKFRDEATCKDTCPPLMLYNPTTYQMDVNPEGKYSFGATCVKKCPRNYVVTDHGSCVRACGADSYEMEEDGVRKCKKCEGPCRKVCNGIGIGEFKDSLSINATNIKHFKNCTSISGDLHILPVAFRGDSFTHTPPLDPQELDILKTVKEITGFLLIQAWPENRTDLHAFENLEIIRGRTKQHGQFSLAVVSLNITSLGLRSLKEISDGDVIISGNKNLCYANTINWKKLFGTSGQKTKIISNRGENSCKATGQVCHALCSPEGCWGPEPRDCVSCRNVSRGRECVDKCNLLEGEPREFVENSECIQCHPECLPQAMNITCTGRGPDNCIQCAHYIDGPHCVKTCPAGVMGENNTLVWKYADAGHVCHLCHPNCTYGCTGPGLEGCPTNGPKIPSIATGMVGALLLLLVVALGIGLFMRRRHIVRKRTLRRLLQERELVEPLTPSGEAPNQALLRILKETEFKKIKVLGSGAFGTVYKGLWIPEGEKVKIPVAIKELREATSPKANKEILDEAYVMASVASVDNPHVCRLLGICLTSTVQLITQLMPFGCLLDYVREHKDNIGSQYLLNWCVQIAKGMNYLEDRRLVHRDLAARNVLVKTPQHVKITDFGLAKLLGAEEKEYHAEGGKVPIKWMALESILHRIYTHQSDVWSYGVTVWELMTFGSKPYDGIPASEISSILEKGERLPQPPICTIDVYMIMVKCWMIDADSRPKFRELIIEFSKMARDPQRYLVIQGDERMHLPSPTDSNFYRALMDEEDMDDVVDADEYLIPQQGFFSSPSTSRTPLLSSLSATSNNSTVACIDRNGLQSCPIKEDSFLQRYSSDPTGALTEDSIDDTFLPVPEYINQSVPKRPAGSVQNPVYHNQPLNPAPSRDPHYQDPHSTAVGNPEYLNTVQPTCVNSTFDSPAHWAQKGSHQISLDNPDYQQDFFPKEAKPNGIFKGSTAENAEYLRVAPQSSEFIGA

SMILES | IC50 [1] | GI50 [2] | GI50 [3]
C=CC(=O)Nc1ccc(F)c(Nc2nc(Nc3cnn(C)c3)ncc2-c2ccc3c(c2)OCCO3)c1 [Compound 111, N-(3-((5-(2,3-dihydrobenzo[b][1,4]dioxin-6-yl)-2-((1-methyl-1H-pyrazol-4-yl)amino)pyrimidin-4-yl)amino)-4-fluorophenyl)acrylamide] | 164 nM | 1080 nM | –
C=CC(=O)Nc1ccc(F)c(Nc2nc(Nc3cnn(C)c3)ncc2-c2cc(F)cc(N3CCCC3)c2)c1 [Compound 121, N-(4-fluoro-3-((5-(3-fluoro-5-(pyrrolidin-1-yl)phenyl)-2-((1-methyl-1H-pyrazol-4-yl)amino)pyrimidin-4-yl)amino)phenyl)acrylamide] | > 10000 nM | > 10000 nM | –
C=CC(=O)Nc1ccc(F)c(Nc2nc(Nc3cnn(C)c3)ncc2-c2cc(F)cc(N3CCC3)c2)c1 [Compound 120, N-(3-((5-(3-(azetidin-1-yl)-5-fluorophenyl)-2-((1-methyl-1H-pyrazol-4-yl)amino)pyrimidin-4-yl)amino)-4-fluorophenyl)acrylamide] | 9280 nM | > 10000 nM | –
C=CC(=O)Nc1ccc(F)c(Nc2nc(Nc3cnn(C)c3)ncc2-c2ccc3c(c2)OC(C)(C)O3)c1 [Compound 114, N-(3-((5-(2,2-dimethylbenzo[d][1,3]dioxol-5-yl)-2-((1-methyl-1H-pyrazol-4-yl)amino)pyrimidin-4-yl)amino)-4-fluorophenyl)acrylamide] | 77 nM | 4570 nM | –
C=CC(=O)Nc1ccc(F)c(Nc2nc(Nc3cnn(C)c3)ncc2-c2cc(F)c(N(C)C)c(F)c2)c1 [Compound 156, N-(3-((5-(4-(dimethylamino)-3,5-difluorophenyl)-2-((1-methyl-1H-pyrazol-4-yl)amino)pyrimidin-4-yl)amino)-4-fluorophenyl)acrylamide] | 19 nM | 309 nM | –
C=CC(=O)Nc1ccc(F)c(Nc2nc(Nc3cnn(C)c3)ncc2-c2cc(OC)cc(OC)c2)c1 [Compound 116, N-(3-((5-(3,5-dimethoxyphenyl)-2-((1-methyl-1H-pyrazol-4-yl)amino)pyrimidin-4-yl)amino)-4-fluorophenyl)acrylamide] | 3520 nM | > 10000 nM | –
C=CC(=O)Nc1ccc(F)c(Nc2nc(Nc3cnn(C)c3)ncc2-c2ccc(F)cc2C(F)(F)F)c1 [Compound 107, N-(4-fluoro-3-((5-(4-fluoro-2-(trifluoromethyl)phenyl)-2-((1-methyl-1H-pyrazol-4-yl)amino)pyrimidin-4-yl)amino)phenyl)acrylamide] | 3130 nM | 7340 nM | –
C=CC(=O)Nc1ccc(F)c(Nc2nc(Nc3cnn(C)c3)ncc2-c2cc(F)cc(OCC3CC3)c2)c1 [Compound 130, N-(3-((5-(3-(cyclopropylmethoxy)-5-fluorophenyl)-2-((1-methyl-1H-pyrazol-4-yl)amino)pyrimidin-4-yl)amino)-4-fluorophenyl)acrylamide] | > 10000 nM | > 10000 nM | –
COc1cc(F)cc(-c2cnc(Nc3cnn(C)c3)nc2Nc2cc(NC(=O)/C=C/CN(C)C)ccc2F)c1 [Compound 144, (E)-4-(dimethylamino)-N-(4-fluoro-3-((5-(3-fluoro-5-methoxyphenyl)-2-((1-methyl-1H-pyrazol-4-yl)amino)pyrimidin-4-yl)amino)phenyl)but-2-enamide] | 4880 nM | 970 nM | –
Cn1cc(Nc2ncc(-c3ccc(Br)c(F)c3)c(Nc3cc(NC(=O)/C=C/CN4CCCCC4)ccc3F)n2)cn1 [Compound 142, (E)-N-(3-((5-(4-bromo-3-fluorophenyl)-2-((1-methyl-1H-pyrazol-4-yl)amino)pyrimidin-4-yl)amino)-4-fluorophenyl)-4-(piperidin-1-yl)but-2-enamide] | 301 nM | 738 nM | –
C=CC(=O)Nc1ccc(F)c(Nc2nc(Nc3cn(C)nc3Cl)ncc2-c2ccc(OC)c(OC)c2)c1 [Compound 110, N-(3-((2-((3-chloro-1-methyl-1H-pyrazol-4-yl)amino)-5-(3,4-dimethoxyphenyl)pyrimidin-4-yl)amino)-4-fluorophenyl)acrylamide] | 819 nM | 5780 nM | –
C=CC(=O)Nc1ccc(F)c(Nc2nc(Nc3cnn(C)c3)ncc2-c2cnc(C(F)(F)F)c(F)c2)c1 [Compound 61, N-(4-fluoro-3-((5-(5-fluoro-6-(trifluoromethyl)pyridin-3-yl)-2-((l-methyl-1H-pyrazol-4-yl)amino)pyrimidin-4-yl)amino)phenyl)acrylamide] | – | 37 nM | 11 nM
C=CC(=O)Nc1ccc(F)c(Nc2nc(Nc3cnn(C)c3)ncc2-c2cc(F)c(C(F)(F)F)c(F)c2)c1 [Compound 20, N-(3-((5-(3,5-difluoro-4-(trifluoromethyl)phenyl)-2-((1-methyl-1H-pyrazol-4-yl)amino)pyrimidin-4-yl)amino)-4-fluorophenyl)acrylamide trifluoroacetate] | 13 nM | 164 nM | 61 nM
C=CC(=O)Nc1ccc(F)c(Nc2nc(Nc3cnn(C)c3)ncc2-c2cc(F)cc(OC(C)C)c2)c1 [Compound 129, N-(4-fluoro-3-((5-(3-fluoro-5-isopropoxyphenyl)-2-((1-methyl-1H-pyrazol-4-yl)amino)pyrimidin-4-yl)amino)phenyl)acrylamide] | > 10000 nM | > 10000 nM | –
C=CC(=O)Nc1ccc(F)c(Nc2nc(Nc3cnn(C)c3)ncc2-c2ccc(Br)c(N(C)C)c2)c1 [Compound 119, N-(3-((5-(4-bromo-3-(dimethylamino)phenyl)-2-((1-methyl-1H-pyrazol-4-yl)amino)pyrimidin-4-yl)amino)-4-fluorophenyl)acrylamide] | 1160 nM | 5200 nM | –
C=CC(=O)Nc1ccc(F)c(Nc2nc(Nc3cnn(C)c3)ncc2-c2ccc(Br)c(OC)c2)c1 [Compound 134, N-(3-((5-(4-bromo-3-methoxyphenyl)-2-((1-methyl-1H-pyrazol-4-yl)amino)pyrimidin-4-yl)amino)-4-fluorophenyl)acrylamide] | 238 nM | 453 nM | –
C=CC(=O)Nc1ccc(F)c(Nc2nc(Nc3cnn(C)c3)ncc2-c2ccc(OCc3cccc(F)c3)c(Cl)c2)c1 [Compound 122, N-{3-[(5-{3-chloro-4-[(3-fluorophenyl)methoxy]phenyl}-2-[(1-methyl-1H-pyrazol-4-yl)amino]pyrimidin-4-yl)amino]-4-fluorophenyl}prop-2-enamide] | 290 nM | 669 nM | –
C=CC(=O)Nc1ccc(F)c(Nc2nc(Nc3cnn(C)c3)ncc2-c2ccc(Br)c(C(F)F)c2)c1 [Compound 118, N-(3-((5-(4-bromo-3-(difluoromethyl)phenyl)-2-((1-methyl-1H-pyrazol-4-yl)amino)pyrimidin-4-yl)amino)-4-fluorophenyl)acrylamide] | 215 nM | 352 nM | –
[2H]c1ccc(NC(=O)C=C)cc1Nc1nc(Nc2cnn(C)c2)ncc1-c1cc(F)cc(OC)c1 [Compound 145, N-(3-((5-(3-fluoro-5-methoxyphenyl)-2-((1-methyl-1H-pyrazol-4-yl)amino)pyrimidin-4-yl)amino)phenyl-4-d)acrylamide] | 388 nM | 264 nM | –
C=CC(=O)Nc1ccc(F)c(Nc2nc(Nc3cnn(C)c3)ncc2-c2ccc(Br)cc2F)c1 [Compound 112, N-(3-((5-(4-bromo-2-fluorophenyl)-2-((1-methyl-1H-pyrazol-4-yl)amino)pyrimidin-4-yl)amino)-4-fluorophenyl)acrylamide] | 497 nM | 923 nM | –
